Laboratory results reported in ChEMBL document CHEMBL1145631, “Development of a fluorescence polarization based assay for histone deacetylase ligand discovery” (Bioorg Med Chem Lett, 2008).

Key:
[1] = biological target: Histone deacetylase 3/Nuclear receptor corepressor 2 (HDAC3/NCoR2) (Homo sapiens, UniProt O15379); format: protein-complex assay
Description: Displacement of fluorescent 5-(3-(3-(4-((4-((7-(hydroxyamino)-7-oxoheptyl)carbamoyl)phenylamino)methyl)-1H-1,2,3-triazol-1-yl)propyl)thioureido)-2-(3-hydroxy-6-oxo-6H-xanthen-9-yl)benzoic acid from human HDAC3/NcoR2 by fluorescence polarization assay

[2] = biological target: T1, Protein deacetylase HDAC6 (Homo sapiens, UniProt Q9UBN7)
T1 sequence (Q9UBN7 whole entry): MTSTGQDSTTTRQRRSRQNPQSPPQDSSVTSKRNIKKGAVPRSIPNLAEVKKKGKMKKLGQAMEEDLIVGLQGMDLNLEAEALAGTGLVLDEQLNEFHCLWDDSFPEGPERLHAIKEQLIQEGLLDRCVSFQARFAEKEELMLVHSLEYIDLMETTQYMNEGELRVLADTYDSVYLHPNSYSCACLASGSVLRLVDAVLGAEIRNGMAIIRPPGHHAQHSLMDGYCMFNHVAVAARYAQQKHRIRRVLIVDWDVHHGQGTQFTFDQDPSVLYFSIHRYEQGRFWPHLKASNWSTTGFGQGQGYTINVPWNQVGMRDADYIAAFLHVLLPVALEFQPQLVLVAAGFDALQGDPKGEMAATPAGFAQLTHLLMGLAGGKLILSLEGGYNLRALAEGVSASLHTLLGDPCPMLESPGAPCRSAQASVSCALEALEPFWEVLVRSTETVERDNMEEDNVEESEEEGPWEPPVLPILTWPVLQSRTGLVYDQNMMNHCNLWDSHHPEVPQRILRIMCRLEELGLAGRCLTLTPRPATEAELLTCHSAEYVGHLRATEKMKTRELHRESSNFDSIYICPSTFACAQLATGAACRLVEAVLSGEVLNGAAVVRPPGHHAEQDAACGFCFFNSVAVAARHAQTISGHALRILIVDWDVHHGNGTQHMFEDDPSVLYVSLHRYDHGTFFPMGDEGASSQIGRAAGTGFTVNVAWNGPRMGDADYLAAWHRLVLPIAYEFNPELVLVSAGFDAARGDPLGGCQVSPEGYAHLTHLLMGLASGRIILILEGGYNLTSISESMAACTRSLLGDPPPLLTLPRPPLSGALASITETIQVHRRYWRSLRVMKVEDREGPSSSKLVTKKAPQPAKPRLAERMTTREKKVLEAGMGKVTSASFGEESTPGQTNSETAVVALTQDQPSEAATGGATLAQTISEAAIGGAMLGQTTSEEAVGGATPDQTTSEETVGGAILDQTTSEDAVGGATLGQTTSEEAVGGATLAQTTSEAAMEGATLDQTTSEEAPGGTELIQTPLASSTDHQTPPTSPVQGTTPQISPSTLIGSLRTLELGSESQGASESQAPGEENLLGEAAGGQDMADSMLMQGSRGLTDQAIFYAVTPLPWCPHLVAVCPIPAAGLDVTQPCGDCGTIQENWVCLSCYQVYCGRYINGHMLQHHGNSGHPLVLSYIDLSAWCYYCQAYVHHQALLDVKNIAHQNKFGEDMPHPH
Description: Displacement of fluorescent 5-(3-(3-(4-((4-((7-(hydroxyamino)-7-oxoheptyl)carbamoyl)phenylamino)methyl)-1H-1,2,3-triazol-1-yl)propyl)thioureido)-2-(3-hydroxy-6-oxo-6H-xanthen-9-yl)benzoic acid from human HDAC6 by fluorescence polarization assay

Histone deacetylase = format: protein assay, Homo sapiens
Description: Displacement of fluorescent 5-(3-(3-(4-((4-((7-(hydroxyamino)-7-oxoheptyl)carbamoyl)phenylamino)methyl)-1H-1,2,3-triazol-1-yl)propyl)thioureido)-2-(3-hydroxy-6-oxo-6H-xanthen-9-yl)benzoic acid from HDAC in human HeLa nuclear cell extract by fluorescence polarization assay

Histone deacetylase 3/Nuclear receptor corepressor 2 (HDAC3/NCoR2), sequence (O15379 whole entry): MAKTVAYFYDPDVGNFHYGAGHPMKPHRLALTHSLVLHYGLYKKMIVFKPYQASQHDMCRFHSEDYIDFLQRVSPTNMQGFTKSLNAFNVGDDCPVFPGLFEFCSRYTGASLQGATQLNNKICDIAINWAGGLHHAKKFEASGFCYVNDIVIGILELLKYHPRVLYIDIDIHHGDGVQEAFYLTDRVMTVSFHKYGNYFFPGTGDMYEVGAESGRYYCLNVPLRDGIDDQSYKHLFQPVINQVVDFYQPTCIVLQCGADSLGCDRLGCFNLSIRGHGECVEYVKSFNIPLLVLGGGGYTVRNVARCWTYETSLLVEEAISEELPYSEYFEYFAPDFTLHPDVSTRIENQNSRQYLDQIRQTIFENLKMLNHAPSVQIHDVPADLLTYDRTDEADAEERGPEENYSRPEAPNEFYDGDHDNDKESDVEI
Histone deacetylase 3/Nuclear receptor corepressor 2 (HDAC3/NCoR2), sequence (Q9Y618 whole entry, further chain): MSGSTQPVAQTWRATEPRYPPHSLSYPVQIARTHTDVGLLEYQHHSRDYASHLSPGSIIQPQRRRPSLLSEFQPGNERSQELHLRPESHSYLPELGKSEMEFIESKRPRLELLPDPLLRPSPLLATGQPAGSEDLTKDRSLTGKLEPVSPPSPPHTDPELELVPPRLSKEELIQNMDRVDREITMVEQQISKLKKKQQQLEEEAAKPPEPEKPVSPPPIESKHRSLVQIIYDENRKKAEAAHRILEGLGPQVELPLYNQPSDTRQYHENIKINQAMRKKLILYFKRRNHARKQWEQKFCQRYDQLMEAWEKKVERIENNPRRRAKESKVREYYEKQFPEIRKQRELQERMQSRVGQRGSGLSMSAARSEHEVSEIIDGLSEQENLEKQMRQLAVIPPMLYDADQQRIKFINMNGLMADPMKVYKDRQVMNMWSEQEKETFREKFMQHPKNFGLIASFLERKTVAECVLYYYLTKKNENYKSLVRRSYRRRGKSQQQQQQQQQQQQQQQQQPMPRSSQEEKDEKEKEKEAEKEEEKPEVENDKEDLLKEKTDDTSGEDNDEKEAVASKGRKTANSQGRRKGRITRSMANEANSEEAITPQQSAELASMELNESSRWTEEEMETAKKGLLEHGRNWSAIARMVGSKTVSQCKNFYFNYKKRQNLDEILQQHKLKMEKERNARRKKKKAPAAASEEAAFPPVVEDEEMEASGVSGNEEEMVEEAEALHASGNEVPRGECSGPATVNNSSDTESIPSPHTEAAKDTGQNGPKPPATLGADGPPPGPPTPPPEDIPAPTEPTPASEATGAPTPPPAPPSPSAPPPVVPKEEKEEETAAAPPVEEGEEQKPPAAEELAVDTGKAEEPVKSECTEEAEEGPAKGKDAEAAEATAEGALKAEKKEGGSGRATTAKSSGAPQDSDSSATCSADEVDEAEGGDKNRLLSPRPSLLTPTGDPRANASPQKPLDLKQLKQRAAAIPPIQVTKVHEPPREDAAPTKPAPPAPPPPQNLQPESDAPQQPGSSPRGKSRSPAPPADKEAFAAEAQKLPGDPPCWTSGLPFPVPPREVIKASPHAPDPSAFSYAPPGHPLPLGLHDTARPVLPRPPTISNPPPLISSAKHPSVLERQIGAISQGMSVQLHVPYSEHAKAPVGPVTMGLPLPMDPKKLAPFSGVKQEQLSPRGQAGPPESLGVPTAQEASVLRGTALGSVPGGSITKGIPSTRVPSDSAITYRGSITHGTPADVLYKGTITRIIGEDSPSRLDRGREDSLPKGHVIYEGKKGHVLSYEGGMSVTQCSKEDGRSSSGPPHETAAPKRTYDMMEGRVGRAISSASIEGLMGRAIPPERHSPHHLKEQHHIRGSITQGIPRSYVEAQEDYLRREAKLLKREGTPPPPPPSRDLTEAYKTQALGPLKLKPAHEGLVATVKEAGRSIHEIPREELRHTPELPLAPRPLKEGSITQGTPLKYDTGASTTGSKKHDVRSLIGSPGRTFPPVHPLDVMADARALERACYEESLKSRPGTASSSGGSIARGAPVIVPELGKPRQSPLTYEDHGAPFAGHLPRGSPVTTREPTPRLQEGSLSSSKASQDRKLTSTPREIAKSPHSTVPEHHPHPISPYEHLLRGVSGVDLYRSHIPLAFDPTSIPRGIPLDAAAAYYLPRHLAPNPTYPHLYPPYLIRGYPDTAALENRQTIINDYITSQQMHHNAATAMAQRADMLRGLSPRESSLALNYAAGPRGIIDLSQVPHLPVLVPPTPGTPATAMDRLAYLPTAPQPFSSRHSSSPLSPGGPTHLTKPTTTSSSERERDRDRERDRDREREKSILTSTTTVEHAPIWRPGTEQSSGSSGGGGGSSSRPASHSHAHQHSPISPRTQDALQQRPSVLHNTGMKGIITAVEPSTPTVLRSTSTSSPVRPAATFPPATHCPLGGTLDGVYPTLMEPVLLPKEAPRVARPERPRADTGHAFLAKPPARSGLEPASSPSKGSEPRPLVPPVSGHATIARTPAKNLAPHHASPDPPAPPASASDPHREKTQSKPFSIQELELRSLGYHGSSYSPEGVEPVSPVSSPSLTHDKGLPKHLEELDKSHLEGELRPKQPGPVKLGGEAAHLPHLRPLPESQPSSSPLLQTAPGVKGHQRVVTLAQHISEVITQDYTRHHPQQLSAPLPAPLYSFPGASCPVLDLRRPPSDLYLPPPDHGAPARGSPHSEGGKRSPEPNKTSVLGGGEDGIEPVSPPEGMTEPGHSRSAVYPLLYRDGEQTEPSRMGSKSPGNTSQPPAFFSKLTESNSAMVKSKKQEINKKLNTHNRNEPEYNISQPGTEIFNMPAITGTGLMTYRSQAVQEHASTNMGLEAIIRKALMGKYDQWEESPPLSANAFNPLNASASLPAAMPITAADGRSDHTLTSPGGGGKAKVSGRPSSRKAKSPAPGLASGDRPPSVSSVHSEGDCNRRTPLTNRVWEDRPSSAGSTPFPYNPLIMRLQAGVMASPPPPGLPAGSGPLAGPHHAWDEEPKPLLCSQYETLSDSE

O=C(CCCCCCNC(=O)c1ccc(NCc2cn(CCCNC(=S)Nc3ccc(-c4c5ccc(=O)cc-5oc5ccccc45)c(C(=O)O)c3)nn2)cc1)NO
Kd [1]: 2 nM | Kd [2]: 4.6 nM

NCCCn1cc(CNc2ccc(C(=O)NCCCCCCC(=O)NO)cc2)nn1
IC50 [1]: 137 nM | Ki [1]: 23.1 nM | IC50 [2]: 50.8 nM | Ki [2]: 6.6 nM | IC50 (Histone deacetylase): 58 nM

O=C1CCc2c(ccc3ccccc23)O1 [SPLITOMICIN]
IC50 [1]: > 75000 nM | Ki [1]: > 75000 nM | IC50 [2]: > 75000 nM | Ki [2]: > 75000 nM | IC50 (Histone deacetylase): > 75000 nM
